Laboratory results as given in patent US10821115B2, “Compounds that inhibit Mcl-1 protein” (priority 2017, dated 2020).

How the values were obtained:
[1] = target: recombinant human Mcl-1 (residues 171-327) / Bim interaction (Homo sapiens (Human), UniProt Q07820); assay: biochemical; format: binding; details: 0.1 nM Mcl-1(171-327), 0.05 nM biotin-Bim (51-76); read-out: Mcl-1 HTRF IC50
[2] = tested on: human multiple myeloma cell line, OPM-2; assay: Cell viability assay (OPM-2 10 FBS), CellTiter-Glo; format: cell-based; details: Homo sapiens, OPM-2, 16 h, read-out: OPM-2 10% FBS IC50 IP, OPM-2 cells, 10% FBS, 16 h incubation
How it was run: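 Cells were seeded at 3000 cells/well in RPMI 1640 with 10% FBS and exposed to serially diluted compounds for 16 h at 37 °C, 5% CO2.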

Chain of recombinant human Mcl-1 (residues 171-327) / Bim interaction (Q07820 171-327): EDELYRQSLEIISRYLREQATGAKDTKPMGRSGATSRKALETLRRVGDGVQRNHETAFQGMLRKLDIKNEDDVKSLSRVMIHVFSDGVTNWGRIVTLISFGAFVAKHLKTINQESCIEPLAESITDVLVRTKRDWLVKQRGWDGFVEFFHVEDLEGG

CO[C@@]1(CN2CCN(C3COC3)CC2)/C=C/C[C@H](C)[C@@H](C)S(=O)(=O)NC(=O)c2ccc3c(c2)N(C[C@@H]2CC[C@H]21)C[C@@]1(CCCc2cc(Cl)ccc21)CO3 [Example 250, (1S,3′R,6′R,7′S,8′E,11′S,12′R)-6-chloro-7′-methoxy-11′,12′-dimethyl-7′-((4-(3-oxetanyl)-1-piperazinyl)methyl)-3,4-dihydro-2H,15′H-spiro[naphthalene-1,22′-[20]oxa[13]thia[1,14]diazatetracyclo [14.7.2.0~3,6~.0~19,24~]pentacosa[8,16,18,24]tetraen]-15′-one 13′,13′-dioxide]
IC50 [1]: 0.071 nM
IC50 [2]: 47 nM

CO[C@@]1(CN2CCN(c3ccccc3)CC2)/C=C/C[C@H](C)[C@@H](C)S(=O)(=O)NC(=O)c2ccc3c(c2)N(C[C@@H]2CC[C@H]21)C[C@@]1(CCCc2cc(Cl)ccc21)CO3 [Example 251, (1S,3′R,6′R,7′S,8′E,11′S,12′R)-6-chloro-7′-methoxy-11′,12′-dimethyl-7′-((4-phenyl-1-piperazinyl)methyl)-3,4-dihydro-2H,15′H-spiro[naphthalene-1,22′-[20]oxa[13]thia[1,14]diazatetracyclo [14.7.2.0~3,6~.0~19,24~]pentacosa[8,16,18,24]tetraen]-15′-one 13′,13′-dioxide]
IC50 [1]: 2.26 nM
IC50 [2]: 3870 nM

CO[C@@]1(CN2CCN(c3ccccn3)CC2)/C=C/C[C@H](C)[C@@H](C)S(=O)(=O)NC(=O)c2ccc3c(c2)N(C[C@@H]2CC[C@H]21)C[C@@]1(CCCc2cc(Cl)ccc21)CO3 [Example 252, (1S,3′R,6′R,7′S,8′E,11′S,12′R)-6-chloro-7′-methoxy-11′,12′-dimethyl-7′-((4-(2-pyridinyl)-1-piperazinyl)methyl)-3,4-dihydro-2H,15′H-spiro[naphthalene-1,22′-[20]oxa[13]thia[1,14]diazatetracyclo [14.7.2.0~3,6~.0~19,24~]pentacosa[8,16,18,24]tetraen]-15′-one 13′,13′-dioxide]
IC50 [1]: 1.38 nM
IC50 [2]: 1800 nM

CO[C@@]1(CN2CCN(c3cccnc3)CC2)/C=C/C[C@H](C)[C@@H](C)S(=O)(=O)NC(=O)c2ccc3c(c2)N(C[C@@H]2CC[C@H]21)C[C@@]1(CCCc2cc(Cl)ccc21)CO3 [Example 253, (1S,3′R,6′R,7′S,8′E,11′S,12′R)-6-chloro-7′-methoxy-11′,12′-dimethyl-7′-((4-(3-pyridinyl)-1-piperazinyl)methyl)-3,4-dihydro-2H,15′H-spiro[naphthalene-1,22′-[20]oxa[13]thia[1,14]diazatetracyclo [14.7.2.0~3,6~.0~19,24~]pentacosa[8,16,18,24]tetraen]-15′-one 13′,13′-dioxide]
IC50 [1]: 0.804 nM
IC50 [2]: 887 nM

CO[C@@]1(CN2CCN(c3ccncc3)CC2)/C=C/C[C@H](C)[C@@H](C)S(=O)(=O)NC(=O)c2ccc3c(c2)N(C[C@@H]2CC[C@H]21)C[C@@]1(CCCc2cc(Cl)ccc21)CO3 [Example 254, (1S,3′R,6′R,7′S,8′E,11′S,12′R)-6-chloro-7′-methoxy-11′,12′-dimethyl-7′-((4-(4-pyridinyl)-1-piperazinyl)methyl)-3,4-dihydro-2H,15′H-spiro[naphthalene-1,22′-[20]oxa[13]thia[1,14]diazatetracyclo [14.7.2.0~3,6~.0~19,24~]pentacosa[8,16,18,24]tetraen]-15′-one 13′,13′-dioxide]
IC50 [1]: 1.2 nM
IC50 [2]: 544 nM

CO[C@@]1(CN2CCN(c3nccs3)CC2)/C=C/C[C@H](C)[C@@H](C)S(=O)(=O)NC(=O)c2ccc3c(c2)N(C[C@@H]2CC[C@H]21)C[C@@]1(CCCc2cc(Cl)ccc21)CO3 [Example 255, (1S,3′R,6′R,7′S,8′E,11′S,12′R)-6-chloro-7′-methoxy-11′,12′-dimethyl-7′-((4-(1,3-thiazol-2-yl)-1-piperazinyl)methyl)-3,4-dihydro-2H,15′H-spiro[naphthalene-1,22′-[20]oxa[13]thia[1,14]diazatetracyclo [14.7.2.0~3,6~.0~19,24~]pentacosa[8,16,18,24]tetraen]-15′-one 13′,13′-dioxide]
IC50 [1]: 1.74 nM
IC50 [2]: 1480 nM

CO[C@@]1(CN2CCN(c3ncccn3)CC2)/C=C/C[C@H](C)[C@@H](C)S(=O)(=O)NC(=O)c2ccc3c(c2)N(C[C@@H]2CC[C@H]21)C[C@@]1(CCCc2cc(Cl)ccc21)CO3 [Example 256, (1S,3′R,6′R,7′S,8′E,11′S,12′R)-6-chloro-7′-methoxy-11′,12′-dimethyl-7′-((4-(2-pyrimidinyl)-1-piperazinyl)methyl)-3,4-dihydro-2H,15′H-spiro[naphthalene-1,22′-[20]oxa[13]thia[1,14]diazatetracyclo [14.7.2.0~3,6~.0~19,24~]pentacosa[8,16,18,24]tetraen]-15′-one 13′,13′-dioxide]
IC50 [1]: 0.433 nM
IC50 [2]: 1640 nM

CO[C@@]1(CN2CCN(c3cnccn3)CC2)/C=C/C[C@H](C)[C@@H](C)S(=O)(=O)NC(=O)c2ccc3c(c2)N(C[C@@H]2CC[C@H]21)C[C@@]1(CCCc2cc(Cl)ccc21)CO3 [Example 257, (1S,3′R,6′R,7′S,8′E,11′S,12′R)-6-chloro-7′-methoxy-11′,12′-dimethyl-7′-((4-(2-pyrazinyl)-1-piperazinyl)methyl)-3,4-dihydro-2H,15′H-spiro[naphthalene-1,22′-[20]oxa[13]thia[1,14]diazatetracyclo [14.7.2.0~3,6~.0~19,24~]pentacosa[8,16,18,24]tetraen]-15′-one 13′,13′-dioxide]
IC50 [1]: 0.403 nM
IC50 [2]: 981 nM

CO[C@@]1(CN2CC(N3CCOCC3)C2)/C=C/C[C@H](C)[C@@H](C)S(=O)(=O)NC(=O)c2ccc3c(c2)N(C[C@@H]2CC[C@H]21)C[C@@]1(CCCc2cc(Cl)ccc21)CO3 [Example 258, (1S,3′R,6′R,7′S,8′E,11′S,12′R)-6-chloro-7′-methoxy-11′,12′-dimethyl-7′-((3-(4-morpholinyl)-1-azetidinyl)methyl)-3,4-dihydro-2H,15′H-spiro[naphthalene-1,22′-[20]oxa[13]thia[1,14]diazatetracyclo [14.7.2.0~3,6~.0~19,24~]pentacosa[8,16,18,24]tetraen]-15′-one 13′,13′-dioxide]
IC50 [1]: 0.069 nM
IC50 [2]: 95 nM

CO[C@@]1(CN2CCN(C(=O)N(C)C)CC2)/C=C/C[C@H](C)[C@@H](C)S(=O)(=O)NC(=O)c2ccc3c(c2)N(C[C@@H]2CC[C@H]21)C[C@@]1(CCCc2cc(Cl)ccc21)CO3 [Example 259, 4-(((1S,3′R,6′R,7′S,8′E,11′S, 12′R)-6-chloro-7′-methoxy-11′,12′-dimethyl-13′,13′-dioxido-15′-oxo-3,4-dihydro-2H-spiro[naphthalene-1,22′-[20]oxa[13]thia[1,14]diazatetracyclo [14.7.2.0~3,6~.0~19,24~]pentacosa[8,16,18,24]tetraen]-7′-yl)methyl)-N,N-dimethyl-1-piperazinecarboxamide]
IC50 [1]: 0.23 nM
IC50 [2]: 254 nM

COCCN(C)C1CN(C[C@]2(OC)/C=C/C[C@H](C)[C@@H](C)S(=O)(=O)NC(=O)c3ccc4c(c3)N(C[C@@H]3CC[C@H]32)C[C@@]2(CCCc3cc(Cl)ccc32)CO4)C1 [Example 260, (1S,3′R,6′R,7′S,8′E,11′S,12′R)-6-chloro-7′-methoxy-7′-((3-((2-methoxyethyl)(methyl)amino)-1-azetidinyl)methyl)-11′,12′-dimethyl-3,4-dihydro-2H,15′H-spiro[naphthalene-1,22′-[20]oxa[13]thia[1,14]diazatetracyclo [14.7.2.0~3,6~.0~19,24~]pentacosa[8,16,18,24]tetraen]-15′-one 13′,13′-dioxide]
IC50 [1]: 0.083 nM
IC50 [2]: 103 nM

CCOC(=O)CN1CCN(C[C@]2(OC)/C=C/C[C@H](C)[C@@H](C)S(=O)(=O)NC(=O)c3ccc4c(c3)N(C[C@@H]3CC[C@H]32)C[C@@]2(CCCc3cc(Cl)ccc32)CO4)CC1 [Example 261, ethyl (4-(((1S,3′R,6′R,7′S,8′E,11′S, 12′R)-6-chloro-7′-methoxy-11′,12′-dimethyl-13′,13′-dioxido-15′-oxo-3,4-dihydro-2H-spiro[naphthalene-1,22′-[20]oxa[13]thia[1,14]diazatetracyclo [14.7.2.0~3,6~.0~19,24~]pentacosa[8,16,18,24]tetraen]-7′-yl)methyl)-1-piperazinyl)acetate]
IC50 [1]: 0.153 nM
IC50 [2]: 146 nM

CO[C@@]1(CN2CCC3(CCOCC3)CC2)/C=C/C[C@H](C)[C@@H](C)S(=O)(=O)NC(=O)c2ccc3c(c2)N(C[C@@H]2CC[C@H]21)C[C@@]1(CCCc2cc(Cl)ccc21)CO3 [Example 264, (1S,3′R,6′R,7′S,8′E,11′S,12′R)-6-chloro-7′-methoxy-11′,12′-dimethyl-7′-(3-oxa-9-azaspiro[5.5]undec-9-ylmethyl)-3,4-dihydro-2H,15′H-spiro[naphthalene-1,22′-[20]oxa[13]thia[1,14]diazatetracyclo [14.7.2.0~3,6~.0~19,24~]pentacosa[8,16,18,24]tetraen]-15′-one 13′,13′-dioxide]
IC50 [1]: 0.396 nM
IC50 [2]: 771 nM

CO[C@@]1(CN2CCC3(CCOC3)CC2)/C=C/C[C@H](C)[C@@H](C)S(=O)(=O)NC(=O)c2ccc3c(c2)N(C[C@@H]2CC[C@H]21)C[C@@]1(CCCc2cc(Cl)ccc21)CO3 [Example 265, (1S,3′R,6′R,7′S,8′E,11′S,12′R)-6-chloro-7′-methoxy-11′,12′-dimethyl-7′-(2-oxa-8-azaspiro[4.5]dec-8-ylmethyl)-3,4-dihydro-2H,15′H-spiro[naphthalene-1,22′-[20]oxa[13]thia[1,14]diazatetracyclo [14.7.2.0~3,6~.0~19,24~]pentacosa[8,16,18,24]tetraen]-15′-one 13′,13′-dioxide]
IC50 [1]: 0.423 nM
IC50 [2]: 578 nM
